In paper PMC6753678, “Fueling Open Innovation for Malaria Transmission-Blocking Drugs: Hundreds of Molecules Targeting Early Parasite Mosquito Stages” (Frontiers in Microbiology, 2019):

Assays:
[1] = system: P. falciparum female gametocytes; parameters: method as in Miguel-Blanco et al 2017; settings: TCAMS library screen; ref Miguel-Blanco et al 2017; read-out: Pf FGAA IC50; cited from earlier work
[2] = system: P. falciparum female gametocytes; assay: P. falciparum female gametogenesis assay (Pf FGAA); settings: 1: YES; 0: NO
HepG2 cells = settings: HepG2 value reported with Pf FGAA screen; ref Miguel-Blanco et al 2017; cited from earlier work

Structure (SMILES) | IC50 [1] [nM] | Is compound selective in assay? Pf FGAA active? [2] | HepG2 cytoxicity (Pf FGAA screen) (HepG2 cells) [µM]
CCc1c(CCNCCCCCNCCc2ccc(OC)c(OC)c2CC)ccc(OC)c1OC.Cl [TCMDC-132064] | 2050 | 0 (0: NO) | 4.68
CC(C)(C)c1cc(NC2CC2)nc(-c2ccccn2)n1 [TCMDC-125826] | 120 | 1 (1: YES) | >100
CCCCN(CCCC)CCCCNc1c2ccc(Cl)cc2nc2ccc(OC)cc12.Cl [TCMDC-137460] | 1970 | 0 (0: NO) | 4.73
O=C(c1ccc([N+](=O)[O-])o1)N1CCN(c2nc3c(Cl)cccc3s2)CC1 [TCMDC-124316] | 1100 | 1 (1: YES) | 41.96
Cc1ccnc(NC(c2ccc(Cl)c([N+](=O)[O-])c2)c2ccc3cccnc3c2O)c1 (stereo not drawn) [TCMDC-123691] | 1480 | 1 (1: YES) | 23.45
COc1cc(CNCCCCCCNCc2cc(OC)c3ccccc3c2OC)c(OC)c2ccccc12.CS(=O)(=O)O [TCMDC-137502] | 1670 | 0 (0: NO) | 3.67
COc1ccccc1-c1nc2c(ccc3nc(N)nc(N)c32)[nH]1 [TCMDC-137976] | 1130 | 0 (0: NO) | 2.87
CCCN(CCC)CCCN(CCCN(CCC)CCC)c1cc(C)nc(Nc2ccc3cc(Br)ccc3c2)n1.Cl [TCMDC-138006] | 990 | 0 (0: NO) | 3.43
Cc1c2ccncc2c(C)c2c1[nH]c1cc(Cc3ccccc3)c(O)cc12 [TCMDC-132053] | 1090 | 0 (0: NO) | 1.23
O=C(NCC1CCN(Cc2cccc(C(F)(F)F)c2)C1)c1cc(-c2cccc(F)c2)cs1.O=C(O)C(F)(F)F (stereo not drawn) [TCMDC-134484] | 2260 | 0 (0: NO) | 18.87
CCn1c(-c2nonc2N)nc2c(-c3cccc(NC(=O)Nc4ccc5c(c4)CCC5)c3)ncc(OCCCN)c21.O=C(O)C(F)(F)F [TCMDC-136191] | 1030 | 0 (0: NO) | 7.42
N#CC(c1ccc(Br)cc1)c1ccc2c(C(F)(F)F)cc(C(F)(F)F)nc2n1 (stereo not drawn) [TCMDC-123754] | 1160 | 0 (0: NO) | 2.32
COc1cc2nc(Nc3ccc4c(ccn4Cc4ccccc4)c3)nc(Nc3ccc4c(ccn4Cc4ccccc4)c3)c2cc1OC [TCMDC-138237] | 1580 | 0 (0: NO) | 14.13
COc1cc(/C=C(\C2=NC(=O)CS2)c2nc3cccnc3n2C)ccc1O [TCMDC-135917] | 720 | 1 (1: YES) | 21.14
Oc1c(C(Nc2ccccn2)c2ccc(Cl)cc2Cl)ccc2cccnc12 (stereo not drawn) [TCMDC-125559] | 1140 | 1 (1: YES) | 12.74
COc1ccc(NC(=O)Nc2ccc(Nc3nc(C)cc(N4CCCC4)n3)cc2)cc1 [TCMDC-124958] | 1080 | 1 (1: YES) | 11.89
CCOc1cc2ccccc2cc1CNCCCCCCNCc1cc2ccccc2cc1OCC.CS(=O)(=O)O [TCMDC-137940] | 1290 | 0 (0: NO) | 6.06
CCc1ccccc1-c1csc(C(=O)NCC2CCN(Cc3ccc(C(C)(C)C)cc3)C2)c1.O=C(O)C(F)(F)F (stereo not drawn) [TCMDC-134448] | 1200 | 0 (0: NO) | 7.67
